Laboratory results reported in the kinase profiling compilation of Christmann-Franck et al. (2016).

Assays:
Assay in all cases: KINOMEscan competition binding
Conditions in all cases: compound 10.0 µM
[1] = target: AKT1 (human) (UniProt P31749)
[2] = target: CDK17 (human) (UniProt Q00537)
[3] = target: CSF1R (human) (UniProt P07333)
[4] = target: CSNK2A1 (human) (UniProt P68400)
[5] = target: CSNK2A2 (human) (UniProt P19784)
[6] = target: EPHA8 (human) (UniProt P29322)
[7] = target: EPHB1 (human) (UniProt P54762)
[8] = target: EPHB4 (human) (UniProt P54760)
[9] = target: FLT1 (human) (UniProt P17948)
[10] = system: FLT3 (human), P36888 [ITD]
[11] = target: GAK (human) (UniProt O14976)
[12] = target: LCK (human) (UniProt P06239)
[13] = target: LIMK1 (human) (UniProt P53667)
[14] = target: LTK (human) (UniProt P29376)
[15] = target: LYN (human) (UniProt P07948)
[16] = target: MAP3K7 (human) (UniProt O43318)
[17] = target: MAPK12 (human) (UniProt P53778)
[18] = target: MAPK7 (human) (UniProt Q13164)
[19] = target: MAPK8 (human) (UniProt P45983)
[20] = target: MKNK2 (human) (UniProt Q9HBH9)
[21] = target: NEK2 (human) (UniProt P51955)
[22] = target: NLK (human) (UniProt Q9UBE8)
[23] = target: NUAK1 (human) (UniProt O60285)
[24] = target: PAK3 (human) (UniProt O75914)
[25] = target: PAK7 (human) (UniProt Q9P286)
[26] = target: PIM1 (human) (UniProt P11309)
[27] = target: PIM2 (human) (UniProt Q9P1W9)
[28] = target: PIM3 (human) (UniProt Q86V86)
[29] = target: PKMYT1 (human) (UniProt Q99640)
[30] = target: PRKCE (human) (UniProt Q02156)
[31] = target: PRKCH (human) (UniProt P24723)
[32] = target: PRKG2 (human) (UniProt Q13237)
[33] = target: PTK2 (human) (UniProt Q05397)
[34] = target: RPS6KA5 KD1 (human) (UniProt O75582)
[35] = target: STK36 (human) (UniProt Q9NRP7)
[36] = target: TAOK1 (human) (UniProt Q7L7X3)
[37] = target: TEK (human) (UniProt Q02763)
[38] = target: ULK1 (human) (UniProt O75385)
[39] = target: CAMK1D (human) (UniProt Q8IU85)
[40] = target: FES (human) (UniProt P07332)
[41] = target: GSK3B (human) (UniProt P49841)

Sequence of LIMK1 (human) (P53667 whole entry, looked up): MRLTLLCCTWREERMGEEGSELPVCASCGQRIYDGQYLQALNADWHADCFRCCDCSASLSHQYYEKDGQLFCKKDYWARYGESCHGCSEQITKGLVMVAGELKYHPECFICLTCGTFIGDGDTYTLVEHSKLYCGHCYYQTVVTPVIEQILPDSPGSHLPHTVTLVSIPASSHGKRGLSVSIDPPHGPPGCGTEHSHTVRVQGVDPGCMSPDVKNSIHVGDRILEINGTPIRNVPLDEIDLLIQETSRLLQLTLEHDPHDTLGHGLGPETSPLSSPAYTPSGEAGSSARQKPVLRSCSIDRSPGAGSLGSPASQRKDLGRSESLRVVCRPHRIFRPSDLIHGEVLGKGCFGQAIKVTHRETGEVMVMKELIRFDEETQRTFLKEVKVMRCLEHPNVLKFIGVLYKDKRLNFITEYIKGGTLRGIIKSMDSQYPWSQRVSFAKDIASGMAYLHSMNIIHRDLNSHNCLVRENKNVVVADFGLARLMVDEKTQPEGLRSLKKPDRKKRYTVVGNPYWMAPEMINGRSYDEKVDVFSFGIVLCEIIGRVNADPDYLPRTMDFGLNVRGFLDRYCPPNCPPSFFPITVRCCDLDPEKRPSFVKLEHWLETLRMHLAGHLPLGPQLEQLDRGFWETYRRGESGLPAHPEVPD
Sequence of LYN (human) (P07948 whole entry, looked up): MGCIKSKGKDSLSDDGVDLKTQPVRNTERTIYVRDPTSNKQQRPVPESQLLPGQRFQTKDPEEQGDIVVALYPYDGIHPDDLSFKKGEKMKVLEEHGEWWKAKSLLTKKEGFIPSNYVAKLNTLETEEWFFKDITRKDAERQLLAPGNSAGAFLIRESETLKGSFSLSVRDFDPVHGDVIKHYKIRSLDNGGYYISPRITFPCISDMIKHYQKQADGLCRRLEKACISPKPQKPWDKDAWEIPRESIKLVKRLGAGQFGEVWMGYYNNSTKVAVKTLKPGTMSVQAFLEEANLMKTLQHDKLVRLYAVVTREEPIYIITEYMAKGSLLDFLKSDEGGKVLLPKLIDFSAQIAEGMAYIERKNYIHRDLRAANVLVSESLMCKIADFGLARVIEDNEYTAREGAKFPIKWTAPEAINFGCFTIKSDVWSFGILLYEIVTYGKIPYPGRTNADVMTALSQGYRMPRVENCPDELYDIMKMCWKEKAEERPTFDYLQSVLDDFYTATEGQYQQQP
Sequence of PAK3 (human) (O75914 whole entry, looked up): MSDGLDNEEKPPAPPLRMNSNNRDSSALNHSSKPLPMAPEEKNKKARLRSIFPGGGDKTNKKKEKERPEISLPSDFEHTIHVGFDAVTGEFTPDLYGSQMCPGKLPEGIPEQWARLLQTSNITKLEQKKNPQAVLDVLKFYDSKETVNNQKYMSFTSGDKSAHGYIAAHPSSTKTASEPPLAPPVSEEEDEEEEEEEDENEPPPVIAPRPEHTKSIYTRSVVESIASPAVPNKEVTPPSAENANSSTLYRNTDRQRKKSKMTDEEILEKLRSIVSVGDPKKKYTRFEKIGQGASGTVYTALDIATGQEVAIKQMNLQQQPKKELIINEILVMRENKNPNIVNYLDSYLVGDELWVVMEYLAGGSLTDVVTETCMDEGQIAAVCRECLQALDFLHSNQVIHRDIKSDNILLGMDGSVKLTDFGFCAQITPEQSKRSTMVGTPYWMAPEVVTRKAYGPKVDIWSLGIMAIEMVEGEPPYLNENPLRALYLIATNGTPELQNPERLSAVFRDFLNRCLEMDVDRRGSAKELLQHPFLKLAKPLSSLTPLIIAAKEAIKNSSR
Sequence of GAK (human) (O14976 whole entry, looked up): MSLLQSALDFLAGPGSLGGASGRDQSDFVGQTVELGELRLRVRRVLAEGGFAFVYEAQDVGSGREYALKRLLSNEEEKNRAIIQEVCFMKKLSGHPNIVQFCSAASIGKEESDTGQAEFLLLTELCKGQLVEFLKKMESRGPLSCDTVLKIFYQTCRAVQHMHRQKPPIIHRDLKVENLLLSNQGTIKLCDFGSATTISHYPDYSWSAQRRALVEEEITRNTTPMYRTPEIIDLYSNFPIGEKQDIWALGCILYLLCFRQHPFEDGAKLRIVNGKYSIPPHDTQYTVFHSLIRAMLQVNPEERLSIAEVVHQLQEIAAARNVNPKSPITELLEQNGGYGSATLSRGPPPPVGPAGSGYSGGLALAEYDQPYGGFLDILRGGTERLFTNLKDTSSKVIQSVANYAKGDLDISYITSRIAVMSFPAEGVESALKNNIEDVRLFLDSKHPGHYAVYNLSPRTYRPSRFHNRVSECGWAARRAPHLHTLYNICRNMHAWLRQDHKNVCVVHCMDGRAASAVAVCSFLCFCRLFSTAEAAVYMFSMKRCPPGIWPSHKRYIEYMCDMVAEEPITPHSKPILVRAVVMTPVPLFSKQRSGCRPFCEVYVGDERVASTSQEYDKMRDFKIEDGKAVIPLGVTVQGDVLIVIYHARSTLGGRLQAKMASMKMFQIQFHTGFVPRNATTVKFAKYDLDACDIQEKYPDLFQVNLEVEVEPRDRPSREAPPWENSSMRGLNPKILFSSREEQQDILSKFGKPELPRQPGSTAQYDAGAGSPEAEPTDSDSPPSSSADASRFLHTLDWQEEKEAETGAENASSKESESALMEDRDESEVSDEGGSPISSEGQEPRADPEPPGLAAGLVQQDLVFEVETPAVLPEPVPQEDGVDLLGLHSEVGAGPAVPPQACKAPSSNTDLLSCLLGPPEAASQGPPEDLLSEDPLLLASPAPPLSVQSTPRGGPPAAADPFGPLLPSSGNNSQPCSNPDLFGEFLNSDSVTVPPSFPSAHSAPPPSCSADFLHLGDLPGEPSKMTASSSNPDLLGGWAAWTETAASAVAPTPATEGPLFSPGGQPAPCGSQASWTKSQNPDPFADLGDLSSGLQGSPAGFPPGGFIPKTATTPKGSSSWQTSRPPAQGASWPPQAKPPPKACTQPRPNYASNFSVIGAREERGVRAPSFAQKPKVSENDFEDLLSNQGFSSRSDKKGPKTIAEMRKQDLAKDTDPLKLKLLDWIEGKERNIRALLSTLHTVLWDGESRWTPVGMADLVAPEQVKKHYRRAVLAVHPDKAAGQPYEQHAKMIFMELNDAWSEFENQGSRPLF
Sequence of EPHB1 (human) (P54762 whole entry, looked up): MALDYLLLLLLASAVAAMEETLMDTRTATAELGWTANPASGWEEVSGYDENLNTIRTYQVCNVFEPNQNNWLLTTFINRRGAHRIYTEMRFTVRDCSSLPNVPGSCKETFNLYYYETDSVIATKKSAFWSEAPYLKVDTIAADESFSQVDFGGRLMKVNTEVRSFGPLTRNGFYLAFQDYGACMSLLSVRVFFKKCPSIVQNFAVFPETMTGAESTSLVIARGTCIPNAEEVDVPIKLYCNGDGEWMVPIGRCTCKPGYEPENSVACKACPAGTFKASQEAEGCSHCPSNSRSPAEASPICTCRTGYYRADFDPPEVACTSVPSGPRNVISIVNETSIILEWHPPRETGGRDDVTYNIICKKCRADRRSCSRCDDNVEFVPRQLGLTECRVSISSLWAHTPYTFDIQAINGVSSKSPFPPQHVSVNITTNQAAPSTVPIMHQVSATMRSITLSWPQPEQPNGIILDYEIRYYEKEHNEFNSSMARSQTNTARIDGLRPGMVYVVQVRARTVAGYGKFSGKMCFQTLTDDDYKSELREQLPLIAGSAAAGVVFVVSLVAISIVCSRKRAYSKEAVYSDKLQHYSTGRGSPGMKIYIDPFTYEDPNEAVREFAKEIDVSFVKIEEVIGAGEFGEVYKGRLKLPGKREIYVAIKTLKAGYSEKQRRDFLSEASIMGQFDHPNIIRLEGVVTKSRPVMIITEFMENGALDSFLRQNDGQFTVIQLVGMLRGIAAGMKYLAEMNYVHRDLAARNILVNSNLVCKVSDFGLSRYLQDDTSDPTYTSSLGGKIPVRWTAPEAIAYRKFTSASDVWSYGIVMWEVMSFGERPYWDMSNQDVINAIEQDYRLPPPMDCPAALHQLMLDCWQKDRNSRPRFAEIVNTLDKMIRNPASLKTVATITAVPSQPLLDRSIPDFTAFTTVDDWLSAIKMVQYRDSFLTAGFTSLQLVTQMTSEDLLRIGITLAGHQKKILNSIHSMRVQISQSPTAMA
Sequence of NLK (human) (Q9UBE8 whole entry, looked up): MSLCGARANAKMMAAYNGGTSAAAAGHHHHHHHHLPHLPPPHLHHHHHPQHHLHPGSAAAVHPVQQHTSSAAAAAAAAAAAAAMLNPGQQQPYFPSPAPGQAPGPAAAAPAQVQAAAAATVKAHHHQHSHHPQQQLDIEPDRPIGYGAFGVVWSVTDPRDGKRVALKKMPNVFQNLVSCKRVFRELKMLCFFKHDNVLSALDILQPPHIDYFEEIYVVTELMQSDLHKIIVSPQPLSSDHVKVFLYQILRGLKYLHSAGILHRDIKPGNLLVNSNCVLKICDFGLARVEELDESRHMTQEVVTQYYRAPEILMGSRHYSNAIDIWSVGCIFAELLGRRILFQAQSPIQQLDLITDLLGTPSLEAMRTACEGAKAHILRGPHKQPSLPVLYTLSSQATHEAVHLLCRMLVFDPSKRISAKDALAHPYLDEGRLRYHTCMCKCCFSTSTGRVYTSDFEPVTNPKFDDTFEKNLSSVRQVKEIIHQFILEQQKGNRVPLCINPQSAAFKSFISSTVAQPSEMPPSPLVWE
Sequence of MAPK8 (human) (P45983 whole entry, looked up): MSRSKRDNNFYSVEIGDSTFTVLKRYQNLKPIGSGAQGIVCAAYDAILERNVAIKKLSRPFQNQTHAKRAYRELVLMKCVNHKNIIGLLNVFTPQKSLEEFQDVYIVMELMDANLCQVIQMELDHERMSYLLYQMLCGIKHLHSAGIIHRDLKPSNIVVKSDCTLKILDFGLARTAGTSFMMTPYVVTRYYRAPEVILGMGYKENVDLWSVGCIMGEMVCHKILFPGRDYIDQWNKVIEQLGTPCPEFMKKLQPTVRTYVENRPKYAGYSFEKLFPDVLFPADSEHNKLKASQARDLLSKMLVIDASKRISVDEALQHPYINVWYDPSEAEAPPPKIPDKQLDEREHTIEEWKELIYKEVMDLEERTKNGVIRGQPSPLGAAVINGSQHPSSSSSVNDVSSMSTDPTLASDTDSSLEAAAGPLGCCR

| SMILES | kinase still bound, per cent of control [1] [%] | kinase still bound, per cent of control [2] [%] | kinase still bound, per cent of control [4] [%] | kinase still bound, per cent of control [5] [%] | kinase still bound, per cent of control [6] [%] | kinase still bound, per cent of control [7] [%] | kinase still bound, per cent of control [8] [%] | kinase still bound, per cent of control [9] [%] | kinase still bound, per cent of control [11] [%] | kinase still bound, per cent of control [12] [%] | kinase still bound, per cent of control [13] [%] | kinase still bound, per cent of control [14] [%] | kinase still bound, per cent of control [15] [%] | kinase still bound, per cent of control [16] [%] | kinase still bound, per cent of control [17] [%] | kinase still bound, per cent of control [18] [%] | kinase still bound, per cent of control [19] [%] | kinase still bound, per cent of control [21] [%] | kinase still bound, per cent of control [22] [%] | kinase still bound, per cent of control [23] [%] | also measured |
| --- | --- | --- | --- | --- | --- | --- | --- | --- | --- | --- | --- | --- | --- | --- | --- | --- | --- | --- | --- | --- | --- |
| CCOc1cc2ncc(C#N)c(Nc3ccc(OCc4ccccn4)c(Cl)c3)c2cc1NC(=O)/C=C/CN(C)C | 98 | 100 | 94 | 72 | 78 | 98 | 91 | 95 | 10 | 3.7 | 100 | 100 | 34 | 90 | 100 | 100 | 16 | 12 | 95 | 61 | kinase still bound, per cent of control [3]: 68%; kinase still bound, per cent of control [10]: 86%; kinase still bound, per cent of control [20]: 99%; kinase still bound, per cent of control [24]: 100%; kinase still bound, per cent of control [25]: 72%; kinase still bound, per cent of control [26]: 100%; kinase still bound, per cent of control [27]: 100%; kinase still bound, per cent of control [28]: 100%; kinase still bound, per cent of control [29]: 84%; kinase still bound, per cent of control [30]: 100%; kinase still bound, per cent of control [31]: 100%; kinase still bound, per cent of control [32]: 92%; kinase still bound, per cent of control [33]: 65%; kinase still bound, per cent of control [34]: 100%; kinase still bound, per cent of control [35]: 69%; kinase still bound, per cent of control [36]: 83%; kinase still bound, per cent of control [37]: 56%; kinase still bound, per cent of control [38]: 100% |
| Nc1ccc(-c2ccc3ncc4ccc(=O)n(-c5cccc(C(F)(F)F)c5)c4c3c2)cn1 | 100 | 98 | 79 | 48 | 99 | 100 | 100 | 100 | 56 | 100 | 100 | 100 | 100 | 48 | 87 | 100 | 60 | 100 | 86 | 83 | kinase still bound, per cent of control [39]: 100%; kinase still bound, per cent of control [40]: 100%; kinase still bound, per cent of control [10]: 45%; kinase still bound, per cent of control [41]: 100%; kinase still bound, per cent of control [24]: 100%; kinase still bound, per cent of control [25]: 69%; kinase still bound, per cent of control [26]: 92%; kinase still bound, per cent of control [27]: 100%; kinase still bound, per cent of control [28]: 100%; kinase still bound, per cent of control [29]: 94%; kinase still bound, per cent of control [30]: 69%; kinase still bound, per cent of control [31]: 99%; kinase still bound, per cent of control [32]: 89%; kinase still bound, per cent of control [33]: 75%; kinase still bound, per cent of control [34]: 100%; kinase still bound, per cent of control [35]: 99%; kinase still bound, per cent of control [36]: 62%; kinase still bound, per cent of control [37]: 100%; kinase still bound, per cent of control [38]: 96% |
| CCCS(=O)(=O)Nc1ccc(F)c(C(=O)c2c[nH]c3ncc(-c4ccc(Cl)cc4)cc23)c1F | 100 | 86 | 100 | 100 | 83 | 100 | 100 | 43 | 84 | 1.6 | 27 | 100 | 16 | 69 | 93 | 69 | 18 | 71 | 81 | 100 | kinase still bound, per cent of control [39]: 100%; kinase still bound, per cent of control [3]: 8%; kinase still bound, per cent of control [40]: 41%; kinase still bound, per cent of control [41]: 100%; kinase still bound, per cent of control [24]: 69%; kinase still bound, per cent of control [25]: 78%; kinase still bound, per cent of control [26]: 95%; kinase still bound, per cent of control [27]: 96%; kinase still bound, per cent of control [28]: 100%; kinase still bound, per cent of control [29]: 100%; kinase still bound, per cent of control [30]: 87%; kinase still bound, per cent of control [31]: 100%; kinase still bound, per cent of control [33]: 63%; kinase still bound, per cent of control [34]: 98%; kinase still bound, per cent of control [35]: 4.6%; kinase still bound, per cent of control [36]: 72%; kinase still bound, per cent of control [37]: 62%; kinase still bound, per cent of control [38]: 93% |
